Source: patent publication US20260069590A1, “METHOD FOR TREATING NONTUBERCULOUS MYCOBACTERIAL INFECTION” (priority 2022, published 2026)

Experiments:
M. abscessus strain 103 = experiment: Mouse model of M. abscessus in the SCID mouse; format: in vivo; settings: treatment end
clinical = settings: human, plasma, inhaled
Protocol: (§2) For placebo, subjects were treated with a nebulized sterile, isotonic saline solution consisting of 0.9% wt/v sodium chloride. […] The doses were administered by inhalation with a Pari e-Flow nebulizer system to investigate tolerability and pharmacokinetics (PK) in healthy human subjects. The subjects were monitored for any life-threatening or severe adverse events and samples of their blood were taken for analysis.
(§3) Participants resided at the clinical research unit until day 5 post-dose, during which time they were evaluated for safety and samples were collected for PK assessment. Participants returned on days 8 and 15 for additional safety assessments and sample collection. […] Participants resided at the clinical research unit until day 8 post-dose, during which time they were evaluated for safety and samples were collected for PK assessment. Participants returned on days 15 and 36 for additional safety assessments and sample collection.

M. avium 2285 rough = experiment: Chronic Beige mouse model; format: in vivo, Beige mice; settings: Day 57, Oral 20 mg/kg, 14 treatments every other day from Day 28
[1] = Safety and tolerability of clofazimine delivered by nebulization in healthy subjects; settings: inhaled, nebulized
Protocol: as §2, §3

[2] = Lung and other tissue toxicokinetics, 28-day inhalation study in dogs; settings: Beagle, in vivo, inhaled or intranasal, dog lung, SD29 to SD84, read-out: lung terminal elimination half-life (converted)
From the text: Clofazimine was extracted by protein precipitation from dog plasma.

[3] = cited from earlier work
[4] = BCS class II drug; cited from earlier work
[5] = tested on: M. avium strain 2285 rough; experiment: Acute mouse model of M. avium infection in the Beige mouse; format: in vivo; settings: treatment end, Oral 20 mg/kg every other day from day 7
M. avium = experiment: Minimum inhibitory concentration, microbroth dilution, presence and absence of CF sputum; format: cell-based; settings: Mycobacterium avium, M. avium B18101968; + SP (10% CF sputum)
Protocol: Minimum inhibitory concentration (MIC) testing was performed by microbroth dilution method using Mueller Hinton (MH) broth (Cation Adjusted) to the calcium and magnesium ion concentration recommended in the CLSI standard M7-A7 (Becton Dickinson). MIC testing also was performed by microbroth dilution method using 7H9 broth (Sigma-Aldrich). […] M. abscessus was grown on 7H11 agar plates (Sigma-Aldrich) for 3 days at 35-37° C. in ambient air (depending on bacterial strain), and M. avium was grown on agar 7H11 plates (Sigma-Aldrich) for 21-30 days at 37° C. in ambient air.
The colony forming units (CFUs) are taken from the agar plates and placed in either MH or 7H9 broth with 0.05% tween-80 and grown at 35-37° C. in ambient air until the optical density (OD) absorbance taken after 3 days (M. abscessus) or 12 (M. avium) of growth is an (OD) 0.08-0.1 (0.5 McFarland Standard). The bacterial cell suspensions are then confirmed by preparing them in saline, matching the (OD) 0.08-0.1 (0.5 McFarland Standard). […]
Minimum inhibitory concentrations assays were performed as described above. […] The MIC of the Composition of Example 1 was measured following the same CLSI protocol as described above, in the presence and absence of cystic fibrosis patient sputum. […]

[6] = Pharmacokinetics of clofazimine delivered by nebulization in healthy subjects
Protocol: as §2, §3

[7] = Plasma toxicokinetics, 28-day inhalation study in dogs; settings: Beagle, dog, in vivo, inhaled or intranasal
Protocol: The animals were studied for a period of 84 days.
All GLP canine study activities were performed by Lovelace Biomedical Research Institute (LBRI) under an IACUC approved protocol. Five groups of Beagle dogs were divided into study groups (Table 1) and exposed once daily by face-mask inhalation to filtered air (Group 1), vehicle (Group 2-0.5% polysorbate in saline), or CIS (Groups 3-5) for 28 consecutive days. The Low, Mid, and High doses (Groups 3, 4, and 5) were exposed to an average aerosol concentration of 0.209 mg/L for 30 min, 60 min and 120 min, respectively. The 28-day exposure period was followed by 28- and 56-day no exposure recovery periods (Recovery Study, Study Day (SD) 56 and 84 respectively). Blood was collected for toxicokinetic (TK) analysis from animals after both the first day of dose administration (Day 1; (0.5 hours (±5 minutes), 6 hours (±30 minutes), 12 hours (±30 minutes), 24 hours (±1 hour)), the last day of dose administration (SD28), and at […], SD56 and SD84, as indicated in Table 1. Main Study animals were necropsied one day post final exposure (SD29), while two male and two female Recovery Study animals were each necropsied on SD56 and SD84.
Aerosolized CIS was delivered to each dog by way of a 6-port aerosol exposure system using three Micro Mist compressed air jet nebulizers. (Supplementary Figure S1) All animals were conditioned to the face masks and restraint system before study. The exposure system and aerosol characteristics of the API and vehicle, including target aerosol concentration, concentration homogeneity, concentration repeatability, and aerosol size distribution were confirmed by LBRI prior to study. Dosing for each dog was measured for every dose delivered throughout study and calculated against individual dog weights.
Blood samples were immediately processed or held on wet ice for no more than 2 hours (hr) before being processed to plasma by centrifugation (1300 g, 2-8° C., ≥10 minutes), with plasma separated into appropriately labeled vials and stored frozen (−70 to −90° C.) until CFZ analysis.
Main study animals (3M/3F per timepoint) had blood samples collected at the following timepoints post-exposure on SD1 and SD28: 0.5 hr (±5 minutes), 6.0 hr (±30 minutes), 12 hr (±30 minutes), and 24 hr (±1 hr). Recovery animals (2M/2F per Recovery timepoint) from each group had blood collected on SD42, and prior to euthanasia on SD56 or SD84. The sample size for each group, sex, and timepoint is described in Table 1. Actual collection times were documented, and all animals in this study underwent scheduled sampling at their respective timepoints.
Retention time and peak area were determined by Analyst® Data Acquisition/Processing Software (Version 1.6.3). Analyte concentrations were obtained from a calibration curve constructed by plotting the peak area versus the nominal concentration using Analyst.
Clinical observations were descriptive while numerical evaluations (means and standard deviations) were used for all other parameters where possible. Toxicokinetic parameters were estimated for blood plasma using Phoenix WinNonlin version 8.3 software (Certara L.P.) with a non-compartmental analysis (NCA) consistent with aerosol administration (extravascular model) on each subject at each timepoint. NCA was only performed if there were quantifiable concentrations at two consecutive timepoints. Concentration values below the lower limit of quantitation of 2.00 ng/ml for plasma were labeled as below quantitative limits (BQL). These BQL values were treated as missing and excluded from calculation of descriptive statistics and toxicokinetic analysis.
Concentrations were used with full precision to three significant figures as received from bioanalytical data.

Calu-3 = experiment: Effects of surfactants on cell viability, MTT assay; format: cell-based, human; settings: 1% in HBSS, positive control
Protocol: (§1) Effects of surfactants on cell viability study: The effects of a surfactant such as polysorbate 80 (PS 80) containing various fatty acids components were used in this study to determine their effect on cell viability in the lungs upon administration of composition for lung delivery. In vitro experiments were carried out using three different human cell lines, i.e., human cell lines A549 (type II pulmonary epithelial cell derived), hAELVi, (human alveolar epithelial cell) and Calu-3 (lung adenocarcinoma cell). The cell lines were obtained from ATCC (Bethesda, MD) and maintained as recommended by the provider and seeded and incubated for the 24 hour test in 96-well plates containing 4×10^4/well in RPMI 1640 medium (Gibco). For testing, the medium as aspirated, the cells were washed twice with Hank's balanced Salt Solution (HBSS) at pH 7.4 and a 0.2 ml sample solution containing a surfactant was added to the cells. HBSS was used as negative control as well as HBSS containing 1% TritonX-100 as positive control. Surfactants under study were two, a super-refined grade PS 80 comprising a mixture of various fatty acid esters of about 70% to 85% total content being oleic acid and having other components including, mystiric, palmitic, palmitoleic, stearic, linoleic and linolenic acid esters. This super-refined PS 80 (Tween® 80, A) manufactured by Mallinckrodt Baker or Merck, and a second PS 80 (B, NOF Corporation) comprising an oleic acid component of about 99% were tested. In the experiments to determine the in vitro IC50 values, the cell lines were exposed to equal concentrations of the two surfactants in HBSS solution at the same concentrations and several dilutions of the test compounds after incubation for 4 hours at 37° C. with shaking, washed with HBSS. Cell viability was assessed based on the absorbance measurements at 550 nm obtained using the MTT assay as described in Metz et al., J. ALTEX, Jan. 29, 2020: V.2 doi:10.14573/altex.1910231. FIGS. 8 and 9, and Table 16 illustrate data obtained from the experiments.

hAELVi = experiment: as above; format: cell-based, human; settings: 1% in HBSS, positive control
Protocol: as §1

A549 = experiment: as above; format: cell-based, human; settings: 1% in HBSS, positive control
Protocol: as §1

## NCC[C@H](O)C(=O)N[C@@H]1C[C@H](N)[C@@H](O[C@H]2O[C@H](CN)[C@@H](O)[C@H](O)[C@H]2O)[C@H](O)[C@H]1O[C@H]1O[C@H](CO)[C@@H](O)[C@H](N)[C@H]1O [Amikacin, amikacin]
M. abscessus strain 103; SQ 150 mg/kg every other day
  Liver Log10 CFU ± SEM: 3.07 ± 0.10 Log10 CFU
  Lung Log10 CFU ± SEM: 3.94 ± 0.11 Log10 CFU
  Spleen Log10 CFU ± SEM: 4.37 ± 0.31 Log10 CFU

## CC(C)/N=c1\cc2n(-c3ccc(Cl)cc3)c3ccccc3nc-2cc1Nc1ccc(Cl)cc1 [Clofazimine, N,5-bis(4-chlorophenyl)-3-propan-2-yliminophenazin-2-amine]
clinical
  half-life: 290 h
M. avium 2285 rough
  Liver Log10 CFU ± SEM: 4.07 ± 0.04 Log10 CFU
  Lung Log10 CFU ± SEM: 5.94 ± 0.12 Log10 CFU
  Spleen Log10 CFU ± SEM: 3.08 ± 0.04 Log10 CFU
[1]
  Columbia Suicide Severity Rating Scale (C-SSRS): no suicidal ideation or behavior
  ECG results: no abnormal, clinically significant electrocardiogram
  skin discoloration: no evidence of skin discoloration
[2]; female, 2.95 mg/kg, Low dose females
  half-life: 262 h
[2]; male, 5.45 mg/kg, Mid dose males
  half-life: 239 h
[2]; male, 10.87 mg/kg, High dose males
  half-life: 475 h
[3]
  absorption in humans after oral administration: 45-62%
[4]
  solubility in water: practically insoluble in water
[5]
  Liver Log10 CFU ± SEM: 3.01 ± 0.03 Log10 CFU
  Lung Log10 CFU ± SEM: 3.95 ± 0.03 Log10 CFU
  Spleen Log10 CFU ± SEM: 3.14 ± 0.03 Log10 CFU
M. avium
  MIC: > 2 µg/mL
[6]; repeated administration, inhaled 30 or 90 mg daily for seven days
  time to peak plasma concentrations: 2 to 12 h
[6]; single administration, inhaled 30, 60, 90 mg
  time to peak plasma concentrations: 4 to 8 h
[6]; single administration, dose increase of 1.5-fold
  increase in AUC0-24: 1.6 fold
[6]; single administration, dose increase of 2-fold
  increase in AUC0-24: 2.3 fold
[7]; female, 0.74 mg/kg
  half-life: 8.99 h
[7]; female, 1.48 mg/kg
  half-life: 9.43 h
[7]; female, 2.52 mg/kg
  half-life: 7.23 h
[7]; male, 0.68 mg/kg
  half-life: 7.19 h
[7]; male, 1.36 mg/kg
  half-life: 8.95 h
[7]; male, 2.72 mg/kg
  half-life: 7.89 h
M. abscessus strain 103; Oral 20 mg/kg every other day
  Liver Log10 CFU ± SEM: 4.78 ± 0.18 Log10 CFU
  Lung Log10 CFU ± SEM: 3.33 ± 0.17 Log10 CFU
  Spleen Log10 CFU ± SEM: 3.79 ± 0.10 Log10 CFU

## Triton X-100
Calu-3
  cell viability: loss all viability
hAELVi
  cell viability: loss all viability
A549
  cell viability: loss all viability
